Data from paper PMC12446476 (Nature Communications, 2025).
Read-outs that look alike come from different tables or passages of the source.

Tested on: N. gonorrhoeae
Assay: MIC determination, Etest
Assay type: cell-based, Neisseria gonorrhoeae
Settings: for MIC: Neisseria gonorrhoeae
Text: The 2024 WHO N. gonorrhoeae reference strains were used for quality control. Only whole MIC doubling dilutions are reported. Clinical breakpoints or the epidemiological cutoff (ECOFF, to indicate azithromycin resistance) from EUCAST (v14.0, https://www.eucast.org/clinical_breakpoints) were used to classify isolates as antimicrobial susceptible or resistant. […] Two times the standard inoculum defined by CLSI was used to establish consistent growth in untreated control samples for some strains. In vitro time-kill assays were performed according to CLSI guidelines[65] using Columbia Broth (BD Difco) supplemented with 1% IsoVitaleX Enrichment (BD). Viable bacterial counts were generated by plating 10-fold serially diluted samples on GC agar plates containing 1% IsoVitaleX Enrichment (BD).

CN[C@@H]1[C@H](O)[C@H](NC)[C@H]2O[C@@]3(O)C(=O)C[C@@H](C)O[C@H]3O[C@@H]2[C@H]1O [Spectinomycin]
susceptible: susceptibility of all isolates (100 contemporary clinical N. gonorrhoeae isolates, EUCAST)
16 µg/mL: MIC (WHO F, Etest, read-out: MIC) | MIC (WHO K, Etest, read-out: MIC) | MIC (WHO L, Etest, read-out: MIC) | MIC (WHO M, Etest, read-out: MIC) | MIC (WHO S2, Etest, read-out: MIC) | MIC (WHO V, Etest, read-out: MIC) | MIC (WHO X, Etest, read-out: MIC) | MIC (WHO Y, Etest, read-out: MIC) | MIC (WHO Z, Etest, read-out: MIC) | MIC (comparator antibiotics, clinical N. gonorrhoeae isolate 1, Sweden 2023, read-out: Minimum inhibitory concentration) | MIC (comparator antibiotics, clinical N. gonorrhoeae isolate 3, Sweden 2023, read-out: Minimum inhibitory concentration) | MIC (comparator antibiotics, clinical N. gonorrhoeae isolate 4, Sweden 2023, read-out: Minimum inhibitory concentration) | MIC (comparator antibiotics, clinical N. gonorrhoeae isolate 7, Sweden 2023, read-out: Minimum inhibitory concentration) | MIC (comparator antibiotics, clinical N. gonorrhoeae isolate 8, Sweden 2023, read-out: Minimum inhibitory concentration) | MIC (comparator antibiotics, clinical N. gonorrhoeae isolate 10, Sweden 2023, read-out: Minimum inhibitory concentration) | MIC (comparator antibiotics, clinical N. gonorrhoeae isolate 11, Sweden 2023, read-out: Minimum inhibitory concentration) | MIC (comparator antibiotics, clinical N. gonorrhoeae isolate 12, Sweden 2023, read-out: Minimum inhibitory concentration) | MIC (comparator antibiotics, clinical N. gonorrhoeae isolate 13, Sweden 2023, read-out: Minimum inhibitory concentration) | MIC (comparator antibiotics, clinical N. gonorrhoeae isolate 14, Sweden 2023, read-out: Minimum inhibitory concentration) | MIC (comparator antibiotics, clinical N. gonorrhoeae isolate 15, Sweden 2023, read-out: Minimum inhibitory concentration) | MIC (comparator antibiotics, clinical N. gonorrhoeae isolate 18, Sweden 2023, read-out: Minimum inhibitory concentration) | MIC (comparator antibiotics, clinical N. gonorrhoeae isolate 19, Sweden 2023, read-out: Minimum inhibitory concentration) | MIC (comparator antibiotics, clinical N. gonorrhoeae isolate 20, Sweden 2023, read-out: Minimum inhibitory concentration) | MIC (comparator antibiotics, clinical N. gonorrhoeae isolate 21, Sweden 2023, read-out: Minimum inhibitory concentration) | MIC (comparator antibiotics, clinical N. gonorrhoeae isolate 24, Sweden 2023, read-out: Minimum inhibitory concentration) | MIC (comparator antibiotics, clinical N. gonorrhoeae isolate 26, Sweden 2023, read-out: Minimum inhibitory concentration) | MIC (comparator antibiotics, clinical N. gonorrhoeae isolate 29, Sweden 2023, read-out: Minimum inhibitory concentration) | MIC (comparator antibiotics, clinical N. gonorrhoeae isolate 35, Sweden 2023, read-out: Minimum inhibitory concentration) | MIC (comparator antibiotics, clinical N. gonorrhoeae isolate 39, Sweden 2023, read-out: Minimum inhibitory concentration) | MIC (comparator antibiotics, clinical N. gonorrhoeae isolate 41, Sweden 2023, read-out: Minimum inhibitory concentration) | MIC (comparator antibiotics, clinical N. gonorrhoeae isolate 43, Sweden 2023, read-out: Minimum inhibitory concentration) | MIC (comparator antibiotics, clinical N. gonorrhoeae isolate 44, Sweden 2023, read-out: Minimum inhibitory concentration) | MIC (comparator antibiotics, clinical N. gonorrhoeae isolate 45, Sweden 2023, read-out: Minimum inhibitory concentration) | MIC (comparator antibiotics, clinical N. gonorrhoeae isolate 47, Sweden 2023, read-out: Minimum inhibitory concentration) | MIC (comparator antibiotics, clinical N. gonorrhoeae isolate 49, Sweden 2023, read-out: Minimum inhibitory concentration)
> 1020 µg/mL: MIC (WHO O, Etest, read-out: MIC)
8 µg/mL: MIC (WHO H, Etest, read-out: MIC) | MIC (WHO P, Etest, read-out: MIC) | MIC (WHO Q, Etest, read-out: MIC) | MIC (WHO R, Etest, read-out: MIC) | MIC (WHO U, Etest, read-out: MIC) | MIC (comparator antibiotics, clinical N. gonorrhoeae isolate 2, Sweden 2023, read-out: Minimum inhibitory concentration) | MIC (comparator antibiotics, clinical N. gonorrhoeae isolate 5, Sweden 2023, read-out: Minimum inhibitory concentration) | MIC (comparator antibiotics, clinical N. gonorrhoeae isolate 6, Sweden 2023, read-out: Minimum inhibitory concentration) | MIC (comparator antibiotics, clinical N. gonorrhoeae isolate 9, Sweden 2023, read-out: Minimum inhibitory concentration) | MIC (comparator antibiotics, clinical N. gonorrhoeae isolate 16, Sweden 2023, read-out: Minimum inhibitory concentration) | MIC (comparator antibiotics, clinical N. gonorrhoeae isolate 17, Sweden 2023, read-out: Minimum inhibitory concentration) | MIC (comparator antibiotics, clinical N. gonorrhoeae isolate 22, Sweden 2023, read-out: Minimum inhibitory concentration) | MIC (comparator antibiotics, clinical N. gonorrhoeae isolate 23, Sweden 2023, read-out: Minimum inhibitory concentration) | MIC (comparator antibiotics, clinical N. gonorrhoeae isolate 25, Sweden 2023, read-out: Minimum inhibitory concentration) | MIC (comparator antibiotics, clinical N. gonorrhoeae isolate 27, Sweden 2023, read-out: Minimum inhibitory concentration) | MIC (comparator antibiotics, clinical N. gonorrhoeae isolate 28, Sweden 2023, read-out: Minimum inhibitory concentration) | MIC (comparator antibiotics, clinical N. gonorrhoeae isolate 30, Sweden 2023, read-out: Minimum inhibitory concentration) | MIC (comparator antibiotics, clinical N. gonorrhoeae isolate 31, Sweden 2023, read-out: Minimum inhibitory concentration) | MIC (comparator antibiotics, clinical N. gonorrhoeae isolate 32, Sweden 2023, read-out: Minimum inhibitory concentration) | MIC (comparator antibiotics, clinical N. gonorrhoeae isolate 33, Sweden 2023, read-out: Minimum inhibitory concentration) | MIC (comparator antibiotics, clinical N. gonorrhoeae isolate 34, Sweden 2023, read-out: Minimum inhibitory concentration) | MIC (comparator antibiotics, clinical N. gonorrhoeae isolate 36, Sweden 2023, read-out: Minimum inhibitory concentration) | MIC (comparator antibiotics, clinical N. gonorrhoeae isolate 37, Sweden 2023, read-out: Minimum inhibitory concentration) | MIC (comparator antibiotics, clinical N. gonorrhoeae isolate 38, Sweden 2023, read-out: Minimum inhibitory concentration) | MIC (comparator antibiotics, clinical N. gonorrhoeae isolate 40, Sweden 2023, read-out: Minimum inhibitory concentration) | MIC (comparator antibiotics, clinical N. gonorrhoeae isolate 42, Sweden 2023, read-out: Minimum inhibitory concentration) | MIC (comparator antibiotics, clinical N. gonorrhoeae isolate 46, Sweden 2023, read-out: Minimum inhibitory concentration) | MIC (comparator antibiotics, clinical N. gonorrhoeae isolate 48, Sweden 2023, read-out: Minimum inhibitory concentration)
